Reference: US11098061B2 (Celgene CAR LLC, priority 2013, dated 2021)

Key:
[1] = target: p38a activated, mitogen-activated protein kinase-activated protein kinase 2 (MAPKAP-K2 or MK-2) enzyme (Homo sapiens (Human), UniProt P49137); assay: MK2 Omnia continuous-read kinase assay for compound potency; format: biochemical; conditions: [MK-2]=0.4 nM, [ATP]=1.0 mM, [ST3-Sox]=10 μM
Description: The protocol below describes a continuous-read kinase assay optimized to measure potency of compounds against p38a activated, mitogen-activated protein kinase-activated protein kinase 2 (MAPKAP-K2 or MK-2) enzyme. The mechanics of the assay platform are best described by the vendor (Invitrogen, Carlsbad, Calif.) on their website at the following URL: invitrogen.com/search/global/searchAction. action?resultPage=1 &resultsPerPage=15 &query=om nia&personaFilterTerm=Support+%26+Troubleshoot
Kinase reactions were started with the addition of 40 μL of MK-2 enzyme and monitored every 71 seconds for 30-240 minutes at λex360/λem485 in a Synergy^2, Synergy^4 or Synergy H^4 plate reader from BioTek (Winooski, Vt.). […] Initial velocity (0 minutes to +30 minutes) from each reaction was estimated from the slope of a plot of relative fluorescence units vs time (minutes) and normalized to the no enzyme and no inhibitor control groups for % Inhibition. The resulting % Inhibition values were then plotted against inhibitor concentration to estimate IC50 from log[Inhibitor] vs Response, Variable Slope model in GraphPad Prism from GraphPad Software (San Diego, Calif.).
[MK-2]=0.4 nM, [ATP]=1.0 mM and [ST3-Sox]=10 μM (ATP ^appKM=8-10 μM)

MK2 [2] = target: T1, MK2 (Homo sapiens (Human), UniProt P49137); assay: MK2 modification assessment by whole protein mass spectrometry; format: binding; conditions: intact MK2, 60 min, 10-fold excess of compound to protein
T1 sequence (P49137 whole entry): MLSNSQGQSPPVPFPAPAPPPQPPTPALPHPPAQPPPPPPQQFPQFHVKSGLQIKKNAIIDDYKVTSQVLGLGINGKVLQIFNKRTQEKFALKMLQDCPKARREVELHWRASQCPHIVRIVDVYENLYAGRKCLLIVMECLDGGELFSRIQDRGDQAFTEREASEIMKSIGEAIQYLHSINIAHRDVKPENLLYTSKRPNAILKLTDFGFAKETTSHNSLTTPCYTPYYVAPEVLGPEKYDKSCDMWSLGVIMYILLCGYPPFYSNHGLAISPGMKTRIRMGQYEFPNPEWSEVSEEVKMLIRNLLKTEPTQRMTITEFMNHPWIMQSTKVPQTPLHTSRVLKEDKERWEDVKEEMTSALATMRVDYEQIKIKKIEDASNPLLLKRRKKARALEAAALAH
Procedure: Modification of MK2 is measured by whole protein MS analysis. […] 5 μL aliquots of the samples were diluted with 15 μL of 0.2% TFA prior to micro C4 ZipTipping directly onto the MALDI target using sinapinic acid as the desorption matrix (10 mg/ml in 0.1% TFA:Acetonitrile 50:50). Analysis was performed on a AB Sciex 4800 MALDI TOF/TOF retro fitted with an HM2 detector (CovalX). Percent modification of target MK2 (i.e., the percent of total MK2 modified by the test compound) for each compound was calculated by subtracting the centroid mass of the compound treated MK2 from the centroid mass of the control MK2 and dividing that value with the mass of the compound.

MK2 [3] = target: T1, MK2; assay: MK2 cellular assay (Hsp27 phosphorylation in Thp-1 cells); format: cell-based; conditions: differentiated Thp-1 cells, compound 1 hour, 50 ng/ml LPS 15 minutes, phosphorylation of Hsp27; read-out: MK2EC50
Procedure: Compounds were assayed in Thp-1 human acute monocytic leukemia cells to measure inhibition of MK2 activity. Thp-1 were grown in suspension in T225 flasks. Two days prior to assay, Thp-1 cells were spun down, counted and plated at 1×10^6 cells per well of a 12 well plate in complete media containing 10 ng/ml PMA (phorbol myristate acetate) to differentiate the cells. On day of assay, cells were washed with complete media, and compound was added to differentiated Thp-1 cells for 1 hour. Cells were washed again, and complete media containing 50 ng/ml LPS (lipopolysaccharide) was added. After 15 minutes, cells were washed once with PBS and lysed on ice with BioRad Bioplex lysis buffer. 20 μg total protein from lysates were loaded on gel and blots were probed for phosphorylation of the MK2 substrate Hsp27. Dose response inhibition of MK2 signaling in differentiated Thp-1 cells was used to determine the EC50 for compounds reported in Table A in the column entitled “MK2 EC50.”

Sequence of p38a activated, mitogen-activated protein kinase-activated protein kinase 2 (MAPKAP-K2 or MK-2) enzyme (P49137 whole entry): as above

| SMILES | IC50 [1] [nM] | MK2 Mass Mod (MK2 [2]) | EC50 (MK2 [3]) [nM] |
| --- | --- | --- | --- |
| C=CC(=O)Nc1cc(-c2ncc3c(n2)-c2[nH]c4c(c2CC3)C(=O)NCC4)cnc1OCCOC [II-13, N-(2-(2-methoxyethoxy)-5-(7-oxo-6,7,8,9,10,11-hexahydro-5H-pyrido[3′,4′:4,5]pyrrolo[3,2-h]quinazolin-2-yl)pyridin-3-yl)acrylamide] | < 100 | E (mass modification of ≥70%) | 101 to 500 |
| C=CC(=O)Nc1cc(-c2ccc3c(ccc4sc5c(c43)NC[C@@H](C)NC5=O)n2)ccc1OC(F)(F)F [III-45, (R)—N-(5-(10-methyl-8-oxo-9,10,11,12-tetrahydro-8H-[1,4]diazepino[5′,6′:4,5]thieno[3,2-f]quinolin-3-yl)-2-(trifluoromethoxy)phenyl)acrylamide] | < 100 |  | < 100 |
| C=CC(=O)Nc1cc(-c2cc3c(cn2)CCc2c-3[nH]c3c2C(=O)NC2(CC2)C3)ccc1F [II-6, N-(2-fluoro-5-(7′-oxo-5′,6′,7′,8′,10′,11′-hexahydrospiro[cyclopropane-1,9′-pyrido[3′,4′:4,5]pyrrolo[2,3-f]isoquinolin]-2′-yl)phenyl)acrylamide] | < 100 | E (mass modification of ≥70%) | < 100 |
| C=CC(=O)Nc1cc(OCC)ccc1Nc1c(C)c(NC2CCCNC2)nc2ccnn12 (centres unmarked) [IV-2, N-(5-ethoxy-2-((6-methyl-5-(piperidin-3-ylamino)pyrazolo [1,5-a]pyrimidin-7-yl)amino)phenyl)acrylamide] | 101 to 500 | E (mass modification of ≥70%) | > 1000 |
| C=CC(=O)Nc1cc(-c2cc3c(ccc4c5c([nH]c43)CCC5=O)cn2)ccc1Cl [II-e-20, N-(2-chloro-5-(7-oxo-7,8,9,10-tetrahydrocyclopenta[4,5]pyrrolo[2,3-f]isoquinolin-2-yl)phenyl)acrylamide] | < 100 | E (mass modification of ≥70%) | 101 to 500 |
| C=CC(=O)Nc1cc(-c2nccc(-c3cc4n(c3)CCNC4=O)n2)ccc1OC [V-c-2, N-(2-methoxy-5-(4-(1-oxo-1,2,3,4-tetrahydropyrrolo[1,2-a]pyrazin-7-yl)pyrimidin-2-yl)phenyl)acrylamide] | < 100 | E (mass modification of ≥70%) | > 1000 |
| C=CC(=O)Nc1cc(-c2cc3c(cn2)CCc2c-3[nH]c3c2C(=O)NCC3)ccc1OCCOC [II-16, N-(2-(2-methoxyethoxy)-5-(7-oxo-6,7,8,9,10,11-hexahydro-5H-pyrido[3′,4′:4,5]pyrrolo[2,3-f]isoquinolin-2-yl)phenyl)acrylamide] | < 100 | E (mass modification of ≥70%) | < 100 |
| C=CC(=O)Nc1cc(-c2nccc(-c3cc4c([nH]3)C3(CCCNC3)CNC4=O)n2)ccc1OCCOC (racemic) [Compound I-7, N-(2-(2-methoxyethoxy)-5-(4-(4′-oxo-1′,4′,5′,6′-tetrahydrospiro[piperidine-3,7′-pyrrolo[3,2-c]pyridin]-2′-yl)pyrimidin-2-yl)phenyl)acrylamide] | < 100 | E (mass modification of ≥70%) | 501 to 999 |
| C=CC(=O)Nc1cc(Cl)cc2oc(-c3ccc4cc5n(c4c3)C3(CCC3)CNC5=O)nc12 [Compound V-62, N-(6-chloro-2-(1′-oxo-2′,3′-dihydro-1′H-spiro[cyclobutane-1,4′-pyrazino [1,2-a]indol]-7′-yl)benzo[d]oxazol-4-yl)acrylamide] | 101 to 500 | E (mass modification of ≥70%) | 101 to 500 |
| C=CC(=O)N1CCOc2ncc(-c3cc4c(cn3)CCc3c-4[nH]c4c3C(=O)NC3(CC3)C4)cc21 [II-9, 2′-(1-acryloyl-2,3-dihydro-1H-pyrido[2,3-b][1,4]oxazin-7-yl)-5′,6′,10′,11′-tetrahydrospiro[cyclopropane-1,9′-pyrido[3′,4′:4,5]pyrrolo[2,3-f]isoquinolin]-7′(8′H)-one] | < 100 | E (mass modification of ≥70%) | > 1000 |
| C=CC(=O)Nc1cc(-c2cc3c(cn2)CCc2c-3[nH]c3c2C(=O)NCC3)cnc1OC [II-4, N-(2-methoxy-5-(7-oxo-6,7,8,9,10,11-hexahydro-5H-pyrido[3′,4′:4,5]pyrrolo[2,3-f]isoquinolin-2-yl)pyridin-3-yl)acrylamide] | < 100 | E (mass modification of ≥70%) | < 100 |
| C=CC(=O)N1CCOc2ccc(-c3cc4c(cn3)CCc3c-4[nH]c4c3C(=O)NC3(CC3)C4)cc21 [II-12, 2′-(4-acryloyl-3,4-dihydro-2H-benzo[b][1,4]oxazin-6-yl)-5′,6′,10′,11′-tetrahydrospiro[cyclopropane-1,9′-pyrido[3′,4′:4,5]pyrrolo[2,3-f]isoquinolin]-7′(8′H)-one] | < 100 | E (mass modification of ≥70%) | 501 to 999 |
| C=CC(=O)Nc1ncccc1NC(=O)c1ccc2cc3n(c2c1)C1(CCC1)CNC3=O [Compound V-57, N-(2-acrylamidopyridin-3-yl)-1′-oxo-2′,3′-dihydro-1′H-spiro[cyclobutane-1,4′-pyrazino[1,2-a]indole]-7′-carboxamide] | < 100 | E (mass modification of ≥70%) | 101 to 500 |
| C=CC(=O)Nc1cc(-c2cc3c(cn2)CCc2c-3[nH]c3c2C(=O)NC2(CC2)C3)cnc1OC [II-5, N-(2-methoxy-5-(7′-oxo-5′,6′,7′,8′,10′,11′-hexahydrospiro[cyclopropane-1,9′-pyrido[3′,4′:4,5]pyrrolo[2,3-f]isoquinolin]-2′-yl)pyridin-3-yl)acrylamide] | < 100 | E (mass modification of ≥70%) | < 100 |
| C=CC(=O)Nc1cc(-c2cc3c(cn2)CCc2c-3[nH]c3c2C(=O)NCC3)cnc1N1CCN(C)CC1 [II-26, N-(2-(4-methylpiperazin-1-yl)-5-(7-oxo-6,7,8,9,10,11-hexahydro-SH-pyrido[3′,4′:4,5]pyrrolo[2,3-f]isoquinolin-2-yl)pyridin-3-yl)acrylamide] | < 100 | E (mass modification of ≥70%) | 101 to 500 |
| C=CS(=O)(=O)N1CCC[C@H](NC(=O)c2ccc3sc4c(c3c2)NC[C@@H](C)NC4=O)C1 [III-43] |  |  | < 100 |
| C=CC(=O)Nc1cc(C)cc(-c2cc3c(ccc4c5c([nH]c43)CCC5=O)cn2)c1 [II-e-22, N-(3-methyl-5-(7-oxo-7,8,9,1-tetrahydrocyclopenta[4,5]pyrrolo[2,3-f]isoquinolin-2-yl)phenyl)acrylamide] | 101 to 500 |  | 101 to 500 |
| C=CC(=O)N1CCC[C@@H](NC(=O)c2ccc3cc4n(c3c2)CCNC4=O)C1 [Compound V-3, (R)—N-(1-acryloylpiperidin-3-yl)-1-oxo-1,2,3,4-tetrahydropyrazino[1,2-a]indole-7-carboxamide] | > 1000 | G (mass modification ≤30%) |  |
| C=CC(=O)NC1COCC1NC(=O)c1ccc2sc3c(c2c1)NC[C@@H](C)NC3=O (some centres unmarked) [III-48] | < 100 | G (mass modification ≤30%) |  |
| C=CC(=O)Nc1cccc(NC(=O)c2ccc3cc4n(c3c2)CCNC4=O)c1 [Compound V-7, N-(3-acrylamidophenyl)-1-oxo-1,2,3,4-tetrahydropyrazino[1,2-a]indole-7-carboxamide] | > 1000 | F (mass modification of 31-69%) |  |
| C=CC(=O)N1CCC[C@H](NC(=O)c2ccc3sc4c(c3c2)NC[C@@H](C)NC4=O)C1 [III-41] |  |  | 101 to 500 |
| C=CC(=O)Nc1cc(-c2cc(-c3cc4c([nH]3)C3(CCCNC3)CNC4=O)ccn2)ccc1N1CCN(C)CC1 (racemic) [Compound I-10, N-(2-(4-methylpiperazin-1-yl)-5-(4-(4′-oxo-1′,4′,5′,6′-tetrahydrospiro[piperidine-3,7′-pyrrolo[3,2-c]pyridin]-2′-yl)pyridin-2-yl)phenyl)acrylamide] | < 100 | E (mass modification of ≥70%) |  |
